The values below come from patent publication US7135466B2 (Kirin Beer Kabushiki Kaisha, priority 1999, dated 2006).

For orientation: IC50 means the midpoint of a concentration-inhibition curve. As usually defined, the inhibition is the share of the control response that was lost under treatment.

The target of one experiment is T1, c-kit (Homo sapiens, UniProt P10721).
T1 construct: MO7e (human megakaryocytic leukemia cell line) which had been arrested for 20 hr; endogenous in cells; host or cells: MO7e human megakaryocytic leukemia cell line
T1 sequence (P10721 26-976): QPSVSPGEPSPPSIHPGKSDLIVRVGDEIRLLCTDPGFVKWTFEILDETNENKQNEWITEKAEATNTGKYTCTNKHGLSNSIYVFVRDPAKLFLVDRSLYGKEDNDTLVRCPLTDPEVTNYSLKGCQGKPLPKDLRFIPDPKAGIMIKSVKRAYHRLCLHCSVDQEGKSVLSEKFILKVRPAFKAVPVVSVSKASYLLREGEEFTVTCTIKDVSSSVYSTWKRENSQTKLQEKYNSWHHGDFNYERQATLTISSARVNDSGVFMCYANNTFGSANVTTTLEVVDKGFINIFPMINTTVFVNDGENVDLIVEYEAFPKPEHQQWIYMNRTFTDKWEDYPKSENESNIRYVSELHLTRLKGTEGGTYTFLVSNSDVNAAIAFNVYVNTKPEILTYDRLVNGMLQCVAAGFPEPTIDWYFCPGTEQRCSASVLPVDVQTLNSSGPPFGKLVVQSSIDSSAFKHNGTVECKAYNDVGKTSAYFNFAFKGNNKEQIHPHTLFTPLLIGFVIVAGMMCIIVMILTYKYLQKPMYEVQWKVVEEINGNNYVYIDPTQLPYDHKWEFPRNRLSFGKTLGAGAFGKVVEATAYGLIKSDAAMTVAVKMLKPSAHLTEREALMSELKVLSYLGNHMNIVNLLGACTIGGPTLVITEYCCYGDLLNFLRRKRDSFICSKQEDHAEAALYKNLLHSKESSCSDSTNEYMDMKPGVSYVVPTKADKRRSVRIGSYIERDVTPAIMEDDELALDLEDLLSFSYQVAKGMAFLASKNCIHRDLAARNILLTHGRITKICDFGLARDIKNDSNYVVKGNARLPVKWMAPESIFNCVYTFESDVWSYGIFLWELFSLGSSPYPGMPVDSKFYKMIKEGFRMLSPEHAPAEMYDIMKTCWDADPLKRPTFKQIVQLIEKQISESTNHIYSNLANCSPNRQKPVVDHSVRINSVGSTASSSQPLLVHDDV
Description: Inhibitory activity against c-kit autophosphorylation (MO7e cells, h-SCF). The class given is cell-based. Particulars: MO7e cells, h-SCF stimulation; read-out: c-kit IC50. In a few lines: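 Growth-arrested (20 hr) MO7e; cpd in DMSO, 1 hr; h-SCF 50 ng/ml, 5 min; lyse. ELISA: anti-pTyr (PY-20) capture, anti-c-kit 1° Ab, HRP anti-rabbit 2° Ab, A450.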
Turning to `COc1cccc(C(=O)NC(=S)Nc2ccc(Oc3ccnc4cc(OC)c(OC)cc34)c(Cl)c2)c1` [Example 950, N-{3-Chloro-4-[(6,7-dimethoxy-4-quinolyl)oxy]phenyl}-N′-(3-methoxybenzoyl)thiourea], the IC50 came out at 224 nM.

With `COc1cc2nccc(Oc3ccc(NC(=S)NC(=O)c4cccc(C(F)(F)F)c4)cc3Cl)c2cc1OC` [Example 951, N-{3-Chloro-4-[(6,7-dimethoxy-4-quinolyl)oxy]phenyl}-N′-[3-(trifluoromethyl)benzoyl]-thiourea], the IC50 is 124 nM.

For `COc1cc2nccc(Oc3ccc(NC(=S)NC(=O)c4cccc(Br)c4)cc3Cl)c2cc1OC` [Example 952, N-(3-Bromobenzoyl)-N′-{3-chloro-4-[(6,7-dimethoxy-4-quinolyl)oxy]phenyl}thiourea], the IC50 came to 317 nM.

As for `COc1cc2ncnc(Oc3ccc(NC(=S)NC(=O)c4cccc(C)c4)cc3)c2cc1OC` [Example 954, N-{4-[(6,7-Dimethoxy-4-quinazolinyl)-oxy]phenyl}-N′-(3-methylbenzoyl)thiourea], the IC50 was 131 nM.

With `COc1cc2ncnc(Oc3ccc(NC(=S)NC(=O)c4cccc(Cl)c4)cc3)c2cc1OC` [Example 955, N-(3-Chlorobenzoyl)-N′-{4-[(6,7-dimethoxy-4-quinazolinyl)oxy]phenyl}thiourea], the IC50 was 251 nM.

On to `COc1cccc(C(=O)NC(=S)Nc2ccc(Oc3ncnc4cc(OC)c(OC)cc34)cc2)c1` [Example 956, N-{4-[(6,7-Dimethoxy-4-quinazolinyl)oxy]phenyl}-N′-(3-methoxybenzoyl)thiourea], for which the IC50 is 326 nM.

`COc1cc2ncnc(Oc3ccc(NC(=S)NC(=O)c4cccc(C(F)(F)F)c4)cc3)c2cc1OC` [Example 957, N-{4-[(6,7-Dimethoxy-4-quinazolinyl)oxy]phenyl}-N′-[3-(trifluoromethyl)benzoyl]thiourea]: the IC50 came to 136 nM.

In the case of `COc1cc2ncnc(Oc3ccc(NC(=S)NC(=O)c4cccc(Br)c4)cc3)c2cc1OC` [Example 958, N-(3-Bromobenzoyl)-N′-{4-[(6,7-dimethoxy-4-quinazolinyl)oxy]phenyl}thiourea], the IC50 stood at 194 nM.

Regarding `COc1cc2nccc(Oc3ccc(NC(=S)NC(=O)c4ccc(Cl)cc4)cc3)c2cc1OC` [Example 960, N-(4-Chlorobenzoyl)-N′-{4-[(6,7-dimethoxy-4-quinolyl)oxy]phenyl}thiourea], the IC50 was 629 nM.

Turning to `COc1cc2nccc(Oc3ccc(NC(=S)NC(=O)c4ccc(F)cc4)cc3)c2cc1OC` [Example 961, N-{4-[(6,7-Dimethoxy-4-quinolyl)oxy]phenyl}-N′-(4-fluorobenzoyl)thiourea], the IC50 came out at 740 nM.

For the compound `COc1ccc(C(=O)NC(=S)Nc2ccc(Oc3ccnc4cc(OC)c(OC)cc34)cc2)cc1` [Example 963, N-{4-[(6,7-Dimethoxy-4-quinolyl)oxy]phenyl}-N′-(4-methoxybenzoyl)thiourea], the IC50 is 701 nM.

Turning to `COc1cc2nccc(Oc3ccc(NC(=S)NC(=O)c4ccc(F)cc4)c(F)c3)c2cc1OC` [Example 966, N-{4-[(6,7-Dimethoxy-4-quinolyl)oxy]-2-fluorophenyl}-N′-(4-fluorobenzoyl)thiourea], the IC50 came out at 233 nM.

`COc1cc2nccc(Oc3ccc(NC(=S)NC(=O)c4ccc(C)cc4)cc3F)c2cc1OC` [Example 970, N-{4-[(6,7-Dimethoxy-4-quinolyl)oxy]-3-fluorophenyl}-N′-(4-methylbenzoyl)thiourea]: the IC50 stood at 300 nM.

For `COc1cc2nccc(Oc3ccc(NC(=S)NC(=O)c4ccc(Cl)cc4)cc3F)c2cc1OC` [Example 971, N-(4-Chlorobenzoyl)-N′-{4-[(6,7-dimethoxy-4-quinolyl)oxy]-3-fluorophenyl}thiourea], the IC50 worked out at 523 nM.

Turning to `COc1cc2nccc(Oc3ccc(NC(=S)NC(=O)c4ccc(F)cc4)cc3F)c2cc1OC` [Example 972, N-{4-[(6,7-Dimethoxy-4-quinolyl)oxy]-3-fluorophenyl}-N′-(4-fluorobenzoyl)thiourea], the IC50 was 532 nM.

On to `COc1cc2nccc(Oc3ccc(NC(=S)NC(=O)c4ccc([N+](=O)[O-])cc4)cc3F)c2cc1OC` [Example 975, N-{4-[(6,7-Dimethoxy-4-quinolyl)oxy]-3-fluorophenyl}-N′-(4-nitrobenzoyl)thiourea], for which the half-inhibitory concentration (IC50) worked out at 290 nM.

Consider `COc1ccc(C(=O)NC(=S)Nc2ccc(Oc3ccnc4cc(OC)c(OC)cc34)c(F)c2)cc1` [Example 976, N-{4-[(6,7-Dimethoxy-4-quinolyl)oxy]-3-fluorophenyl}-N′-(4-methoxybenzoyl)thiourea], for which the IC50 stood at 788 nM.

On to `COc1cc2nccc(Oc3ccc(NC(=S)NC(=O)c4ccc(C)cc4)cc3Cl)c2cc1OC` [Example 977, N-{3-Chloro-4-[(6,7-dimethoxy-4-quinolyl)oxy]phenyl}-N′-(4-methylbenzoyl)thiourea], for which the IC50 amounted to 824 nM.

Turning to `COc1cc2nccc(Oc3ccc(NC(=S)NC(=O)c4ccc(Br)cc4)cc3Cl)c2cc1OC` [Example 980, N-(4-Bromobenzoyl)-N′-{3-chloro-4-[(6,7-dimethoxy-4-quinolyl)oxy]phenyl}thiourea], the IC50 stood at 811 nM.

Take `COc1cc2ncnc(Oc3ccc(NC(=S)NC(=O)c4ccc(F)cc4)cc3)c2cc1OC` [Example 986, N-{4-[(6,7-Dimethoxy-4-quinazolinyl)oxy]phenyl}-N′-(4-fluorobenzoyl)thiourea]: the IC50 amounted to 264 nM.

The same experiment, now with this note: Mo7e, figure in parentheses in −( ); at 1000 nM.
As to `COc1cc2nccc(Oc3ccc(NC(=S)NC(=O)c4cccc(C)c4)c([N+](=O)[O-])c3)c2cc1OC` [Example 953, N-{4-[(6,7-Dimethoxy-4-quinolyl)oxy]-2-nitrophenyl}-N′-(3-methylbenzoyl)thiourea], the inhibition at 1 µM was found to be 32%.

For the compound `COc1cc2nccc(Oc3ccc(NC(=S)NC(=O)c4ccc([N+](=O)[O-])cc4)cc3)c2cc1OC` [Example 962, N-{4-[(6,7-Dimethoxy-4-quinolyl)oxy]phenyl}-N′-(4-nitrobenzoyl)thiourea], the inhibition at 1 µM came out at 35%.

Regarding `COc1cc2nccc(Oc3ccc(NC(=S)NC(=O)c4ccc(C)cc4)c(F)c3)c2cc1OC` [Example 964, N-{4-[(6,7-Dimethoxy-4-quinolyl)oxy]-2-fluorophenyl}-N′-(4-methylbenzoyl)thiourea], the inhibition at 1 µM worked out at 46%.

In the case of `COc1cc2nccc(Oc3ccc(NC(=S)NC(=O)c4ccc(Cl)cc4)c(F)c3)c2cc1OC` [Example 965, N-(4-Chlorobenzoyl)-N′-{4-[(6,7-dimethoxy-4-quinolyl)oxy]-2-fluorophenyl}thiourea], the inhibition at 1 µM was 24%.

`COc1cc2nccc(Oc3ccc(NC(=S)NC(=O)c4ccc([N+](=O)[O-])cc4)c(F)c3)c2cc1OC` [Example 968, N-{4-[(6,7-Dimethoxy-4-quinolyl)oxy]-2-fluorophenyl}-N′-(4-nitrobenzoyl)thiourea]: the inhibition at 1 µM worked out at 27%.

Regarding `COc1ccc(C(=O)NC(=S)Nc2ccc(Oc3ccnc4cc(OC)c(OC)cc34)cc2F)cc1` [Example 969, N-{4-[(6,7-Dimethoxy-4-quinolyl)oxy]-2-fluorophenyl}-N′-(4-methoxybenzoyl)thiourea], the inhibition at 1 µM stood at 19%.

With `COc1cc2nccc(Oc3ccc(NC(=S)NC(=O)c4ccc(Br)cc4)cc3F)c2cc1OC` [Example 973, N-(4-Bromobenzoyl)-N′-{4-[(6,7-dimethoxy-4-quinolyl)oxy]-3-fluorophenyl}thiourea], the inhibition at 1 µM is 0%.

As for `COc1cc2nccc(Oc3ccc(NC(=S)NC(=O)c4ccc(I)cc4)cc3F)c2cc1OC` [Example 974, N-{4-[(6,7-Dimethoxy-4-quinolyl)oxy]-3-fluorophenyl}-N′-(4-iodobenzoyl)thiourea], the inhibition at 1 µM stood at 34%.

`COc1cc2nccc(Oc3ccc(NC(=S)NC(=O)c4ccc(Cl)cc4)cc3Cl)c2cc1OC` [Example 978]: the inhibition at 1 µM worked out at 22%.

Consider `COc1cc2nccc(Oc3ccc(NC(=S)NC(=O)c4ccc(F)cc4)cc3Cl)c2cc1OC` [Example 979, N-{3-Chloro-4-[(6,7-dimethoxy-4-quinolyl)oxy]phenyl}-N′-(4-fluorobenzoyl)thiourea], for which the inhibition at 1 µM worked out at 25%.

In the case of `COc1cc2nccc(Oc3ccc(NC(=S)NC(=O)c4ccc(I)cc4)cc3Cl)c2cc1OC` [Example 981, N-{3-Chloro-4-[(6,7-dimethoxy-4-quinolyl)oxy]phenyl}-N′-(4-iodobenzoyl)thiourea], the inhibition at 1 µM worked out at 47%.

Take `COc1cc2nccc(Oc3ccc(NC(=S)NC(=O)c4ccc([N+](=O)[O-])cc4)cc3Cl)c2cc1OC` [Example 982, N-{3-Chloro-4-[(6,7-dimethoxy-4-quinolyl)oxy]phenyl}-N′-(4-nitrobenzoyl)thiourea]: the inhibition at 1 µM worked out at 18%.

`COc1ccc(C(=O)NC(=S)Nc2ccc(Oc3ccnc4cc(OC)c(OC)cc34)c(Cl)c2)cc1` [Example 983, N-{3-Chloro-4-[(6,7-dimethoxy-4-quinolyl)oxy]phenyl}-N′-(4-methoxybenzoyl)thiourea]: the inhibition at 1 µM amounted to 39%.

Turning to `COc1cc2ncnc(Oc3ccc(NC(=S)NC(=O)c4ccc(C)cc4)cc3)c2cc1OC` [Example 984, N-{4-[(6,7-Dimethoxy-4-quinazolinyl)oxy]phenyl}-N′-(4-methylbenzoyl)thiourea], the inhibition at 1 µM is 30%.

As for `COc1cc2ncnc(Oc3ccc(NC(=S)NC(=O)c4ccc(Cl)cc4)cc3)c2cc1OC` [Example 985, N-(4-Chlorobenzoyl)-N′-{4-[(6,7-dimethoxy-4-quinazolinyl)oxy]phenyl}thiourea], the inhibition at 1 µM worked out at 31%.

Consider `COc1cc2ncnc(Oc3ccc(NC(=S)NC(=O)c4ccc([N+](=O)[O-])cc4)cc3)c2cc1OC` [Example 987, N-{4-[(6,7-Dimethoxy-4-quinazolinyl)oxy]phenyl}-N′-(4-nitrobenzoyl)thiourea], for which the inhibition at 1 µM came to 32%.

In the case of `COc1ccc(C(=O)NC(=S)Nc2ccc(Oc3ncnc4cc(OC)c(OC)cc34)cc2)cc1` [Example 988, N-{4-[(6,7-Dimethoxy-4-quinazolinyl)oxy]phenyl}-N′-(4-methoxybenzoyl)thiourea], the inhibition at 1 µM is 33%.
